From ChEMBL document CHEMBL4507324 (2021)

Legend:
Details in all cases: Compound concentration 100.0 nM
[1] = target: Ribosomal protein S6 kinase alpha-4 (Homo sapiens) (UniProt O75676)
[2] = tested on: ALK tyrosine kinase receptor (Homo sapiens), Q9UM73 [C1156Y]
[3] = target: cGMP-dependent protein kinase 1 (Homo sapiens) (UniProt Q13976)
[4] = target: Cyclin-dependent kinase 14 (Homo sapiens) (UniProt O94921)
[5] = target: Serine/threonine-protein kinase WNK3 (Homo sapiens) (UniProt Q9BYP7)
[6] = target: Activated CDC42 kinase 1 (Homo sapiens) (UniProt Q07912)
[7] = target: Hepatocyte growth factor receptor (Homo sapiens) (UniProt P08581)
[8] = target: Casein kinase I isoform delta (Homo sapiens) (UniProt P48730)
[9] = target: Tyrosine-protein kinase Lck (Homo sapiens) (UniProt P06239)
[10] = target: Ephrin type-A receptor 4 (Homo sapiens) (UniProt P54764)
[11] = target: Serine/threonine-protein kinase 32B (Homo sapiens) (UniProt Q9NY57)
[12] = target: Serine/threonine-protein kinase RIO3 (Homo sapiens) (UniProt O14730)
Sequence of Serine/threonine-protein kinase RIO3 (Homo sapiens) (O14730 whole entry): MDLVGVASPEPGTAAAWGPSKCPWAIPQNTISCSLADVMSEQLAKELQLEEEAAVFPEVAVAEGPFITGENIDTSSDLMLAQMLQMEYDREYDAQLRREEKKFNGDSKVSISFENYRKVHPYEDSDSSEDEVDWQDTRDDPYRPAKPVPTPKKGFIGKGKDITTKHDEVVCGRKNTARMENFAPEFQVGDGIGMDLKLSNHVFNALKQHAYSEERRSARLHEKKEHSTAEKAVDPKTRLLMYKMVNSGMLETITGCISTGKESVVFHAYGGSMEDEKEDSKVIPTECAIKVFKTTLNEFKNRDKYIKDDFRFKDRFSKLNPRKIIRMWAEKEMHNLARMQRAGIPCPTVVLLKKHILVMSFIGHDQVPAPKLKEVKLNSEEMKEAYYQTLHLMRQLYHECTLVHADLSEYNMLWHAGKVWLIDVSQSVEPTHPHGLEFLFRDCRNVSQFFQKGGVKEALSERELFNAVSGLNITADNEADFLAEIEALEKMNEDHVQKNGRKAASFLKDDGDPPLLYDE

[13] = target: Serine/threonine-protein kinase BRSK2 (Homo sapiens) (UniProt Q8IWQ3)
[14] = target: Ephrin type-A receptor 1 (Homo sapiens) (UniProt P21709)
[15] = target: G protein-coupled receptor kinase 3 (Homo sapiens) (UniProt P35626)
[16] = target: Mast/stem cell growth factor receptor Kit (Homo sapiens) (UniProt P10721)
[17] = target: Dual specificity protein kinase CLK1 (Homo sapiens) (UniProt P49759)
[18] = target: Cyclin-dependent kinase 5 (Homo sapiens) (UniProt Q00535)
Sequence of Cyclin-dependent kinase 5 (Homo sapiens) (Q00535 whole entry, looked up): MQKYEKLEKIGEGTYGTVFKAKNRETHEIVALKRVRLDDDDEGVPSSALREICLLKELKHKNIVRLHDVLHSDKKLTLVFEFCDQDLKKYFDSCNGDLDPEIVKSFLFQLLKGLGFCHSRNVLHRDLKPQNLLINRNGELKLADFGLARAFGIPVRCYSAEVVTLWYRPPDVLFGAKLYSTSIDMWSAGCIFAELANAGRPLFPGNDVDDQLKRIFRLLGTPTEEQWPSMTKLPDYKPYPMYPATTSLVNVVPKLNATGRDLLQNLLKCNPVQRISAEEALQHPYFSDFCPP

[19] = target: Serine/threonine-protein kinase ULK1 (Homo sapiens) (UniProt O75385)
[20] = target: Phosphatidylinositol 4,5-bisphosphate 3-kinase catalytic subunit delta isoform (Homo sapiens) (UniProt O00329)
[21] = tested on: Epidermal growth factor receptor (Homo sapiens), P00533 [L858R,T790M]
[22] = target: Serine/threonine-protein kinase Nek10 (Homo sapiens) (UniProt Q6ZWH5)
[23] = target: Mitogen-activated protein kinase kinase kinase 3 (Homo sapiens) (UniProt Q99759)
[24] = target: Macrophage-stimulating protein receptor (Homo sapiens) (UniProt Q04912)
[25] = target: Serine/threonine-protein kinase haspin (Homo sapiens) (UniProt Q8TF76)
[26] = target: Macrophage colony-stimulating factor 1 receptor (Homo sapiens) (UniProt P07333)
[27] = target: Discoidin domain-containing receptor 2 (Homo sapiens) (UniProt Q16832)
Sequence of Discoidin domain-containing receptor 2 (Homo sapiens) (Q16832 whole entry, the tested form may be a part): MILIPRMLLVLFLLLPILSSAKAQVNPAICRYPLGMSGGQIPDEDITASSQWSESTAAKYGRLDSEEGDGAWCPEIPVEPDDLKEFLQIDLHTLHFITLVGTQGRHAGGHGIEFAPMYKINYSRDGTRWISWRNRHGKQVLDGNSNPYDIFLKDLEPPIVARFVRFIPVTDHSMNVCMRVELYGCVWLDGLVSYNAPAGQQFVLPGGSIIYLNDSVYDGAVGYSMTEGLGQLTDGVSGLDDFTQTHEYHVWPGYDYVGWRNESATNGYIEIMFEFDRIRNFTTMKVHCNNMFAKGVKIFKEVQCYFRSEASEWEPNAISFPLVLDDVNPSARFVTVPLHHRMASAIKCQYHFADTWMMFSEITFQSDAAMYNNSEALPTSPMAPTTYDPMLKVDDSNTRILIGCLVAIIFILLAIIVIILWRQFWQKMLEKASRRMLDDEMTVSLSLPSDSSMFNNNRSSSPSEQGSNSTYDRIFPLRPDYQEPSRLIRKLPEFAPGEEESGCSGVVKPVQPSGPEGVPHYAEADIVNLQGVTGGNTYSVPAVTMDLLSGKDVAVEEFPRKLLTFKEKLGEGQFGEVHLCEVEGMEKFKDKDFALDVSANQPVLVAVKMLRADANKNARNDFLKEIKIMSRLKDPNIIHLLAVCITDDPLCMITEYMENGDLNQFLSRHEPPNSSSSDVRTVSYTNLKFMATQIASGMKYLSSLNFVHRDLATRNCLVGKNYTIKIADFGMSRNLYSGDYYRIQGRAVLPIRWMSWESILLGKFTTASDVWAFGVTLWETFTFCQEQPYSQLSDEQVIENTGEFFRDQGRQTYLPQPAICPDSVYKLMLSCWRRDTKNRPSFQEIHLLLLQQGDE

[28] = target: Ribosomal protein S6 kinase alpha-3 (Homo sapiens) (UniProt P51812)
Sequence of Ribosomal protein S6 kinase alpha-3 (Homo sapiens) (P51812 whole entry): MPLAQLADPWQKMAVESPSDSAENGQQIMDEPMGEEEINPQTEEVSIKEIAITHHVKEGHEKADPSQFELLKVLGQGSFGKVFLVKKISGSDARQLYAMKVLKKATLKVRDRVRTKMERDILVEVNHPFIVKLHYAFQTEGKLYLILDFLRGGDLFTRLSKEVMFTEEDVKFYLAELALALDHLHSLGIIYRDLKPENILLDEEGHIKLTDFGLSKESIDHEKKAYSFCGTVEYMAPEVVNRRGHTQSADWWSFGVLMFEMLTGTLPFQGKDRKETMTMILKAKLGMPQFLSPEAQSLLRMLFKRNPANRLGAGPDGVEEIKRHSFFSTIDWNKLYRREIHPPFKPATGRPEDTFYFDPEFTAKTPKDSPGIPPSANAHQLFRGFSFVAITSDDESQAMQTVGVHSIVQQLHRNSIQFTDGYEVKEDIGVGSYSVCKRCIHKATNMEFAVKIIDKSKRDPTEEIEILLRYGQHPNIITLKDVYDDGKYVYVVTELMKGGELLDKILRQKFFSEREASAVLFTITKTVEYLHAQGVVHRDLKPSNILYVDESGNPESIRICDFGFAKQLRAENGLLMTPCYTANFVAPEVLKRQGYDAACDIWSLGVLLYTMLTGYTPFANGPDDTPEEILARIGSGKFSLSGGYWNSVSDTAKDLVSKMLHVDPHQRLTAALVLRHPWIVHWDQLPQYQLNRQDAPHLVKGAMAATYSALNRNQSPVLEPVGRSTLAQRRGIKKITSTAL

[29] = tested on: Receptor-type tyrosine-protein kinase FLT3 (Homo sapiens), P36888 [UNDEFINED MUTATION]
[30] = tested on: Tyrosine-protein kinase ABL1 (Homo sapiens), P00519 [H396P]
[31] = target: Cyclin-dependent kinase-like 3 (Homo sapiens) (UniProt Q8IVW4)
[32] = target: Serine/threonine-protein kinase MRCK alpha (Homo sapiens) (UniProt Q5VT25)
[33] = target: Maternal embryonic leucine zipper kinase (Homo sapiens) (UniProt Q14680)
[34] = target: Death-associated protein kinase 3 (Homo sapiens) (UniProt O43293)
[35] = target: Phosphatidylinositol 4-phosphate 5-kinase type-1 gamma (Homo sapiens) (UniProt O60331)
[36] = tested on: Mast/stem cell growth factor receptor Kit (Homo sapiens), P10721 [V559D,V654A]
[37] = target: Ephrin type-A receptor 3 (Homo sapiens) (UniProt P29320)
[38] = target: Mitogen-activated protein kinase kinase kinase 4 (Homo sapiens) (UniProt Q9Y6R4)
[39] = target: Protein kinase C delta type (Homo sapiens) (UniProt Q05655)
[40] = target: Serine/threonine-protein kinase/endoribonuclease IRE1 (Homo sapiens) (UniProt O75460)
Sequence of Serine/threonine-protein kinase/endoribonuclease IRE1 (Homo sapiens) (O75460 19-977 limits assumed): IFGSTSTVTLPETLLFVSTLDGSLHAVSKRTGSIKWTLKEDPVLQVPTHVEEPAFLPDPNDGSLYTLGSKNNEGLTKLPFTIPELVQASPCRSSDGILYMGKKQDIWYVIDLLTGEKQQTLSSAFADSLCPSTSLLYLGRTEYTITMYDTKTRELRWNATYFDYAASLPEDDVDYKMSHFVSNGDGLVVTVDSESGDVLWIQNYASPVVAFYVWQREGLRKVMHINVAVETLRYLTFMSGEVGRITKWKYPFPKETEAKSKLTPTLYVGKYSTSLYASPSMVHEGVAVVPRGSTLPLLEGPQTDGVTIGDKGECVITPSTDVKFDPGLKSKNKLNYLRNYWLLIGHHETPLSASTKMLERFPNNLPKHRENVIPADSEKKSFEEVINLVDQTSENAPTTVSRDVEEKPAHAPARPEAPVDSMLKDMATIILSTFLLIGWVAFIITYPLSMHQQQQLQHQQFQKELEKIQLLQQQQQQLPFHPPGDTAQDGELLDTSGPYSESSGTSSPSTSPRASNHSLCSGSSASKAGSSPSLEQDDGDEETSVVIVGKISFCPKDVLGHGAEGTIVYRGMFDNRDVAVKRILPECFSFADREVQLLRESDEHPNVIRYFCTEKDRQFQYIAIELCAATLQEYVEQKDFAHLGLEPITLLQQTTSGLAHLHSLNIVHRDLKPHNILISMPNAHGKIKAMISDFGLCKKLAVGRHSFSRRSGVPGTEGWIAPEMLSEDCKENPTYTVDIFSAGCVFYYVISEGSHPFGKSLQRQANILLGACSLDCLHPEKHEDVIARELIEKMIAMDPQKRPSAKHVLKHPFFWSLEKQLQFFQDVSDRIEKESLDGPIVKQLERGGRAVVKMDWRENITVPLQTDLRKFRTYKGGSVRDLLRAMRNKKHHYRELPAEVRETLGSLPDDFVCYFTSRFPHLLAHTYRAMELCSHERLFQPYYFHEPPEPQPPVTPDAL

[41] = target: Serine/threonine-protein kinase N1 (Homo sapiens) (UniProt Q16512)
[42] = target: Dual specificity testis-specific protein kinase 1 (Homo sapiens) (UniProt Q15569)
[43] = target: Eukaryotic translation initiation factor 2-alpha kinase 1 (Homo sapiens) (UniProt Q9BQI3)
[44] = target: Serine/threonine-protein kinase ULK3 (Homo sapiens) (UniProt Q6PHR2)
[45] = target: Serine/threonine-protein kinase LATS1 (Homo sapiens) (UniProt O95835)
Sequence of Serine/threonine-protein kinase LATS1 (Homo sapiens) (O95835 whole entry): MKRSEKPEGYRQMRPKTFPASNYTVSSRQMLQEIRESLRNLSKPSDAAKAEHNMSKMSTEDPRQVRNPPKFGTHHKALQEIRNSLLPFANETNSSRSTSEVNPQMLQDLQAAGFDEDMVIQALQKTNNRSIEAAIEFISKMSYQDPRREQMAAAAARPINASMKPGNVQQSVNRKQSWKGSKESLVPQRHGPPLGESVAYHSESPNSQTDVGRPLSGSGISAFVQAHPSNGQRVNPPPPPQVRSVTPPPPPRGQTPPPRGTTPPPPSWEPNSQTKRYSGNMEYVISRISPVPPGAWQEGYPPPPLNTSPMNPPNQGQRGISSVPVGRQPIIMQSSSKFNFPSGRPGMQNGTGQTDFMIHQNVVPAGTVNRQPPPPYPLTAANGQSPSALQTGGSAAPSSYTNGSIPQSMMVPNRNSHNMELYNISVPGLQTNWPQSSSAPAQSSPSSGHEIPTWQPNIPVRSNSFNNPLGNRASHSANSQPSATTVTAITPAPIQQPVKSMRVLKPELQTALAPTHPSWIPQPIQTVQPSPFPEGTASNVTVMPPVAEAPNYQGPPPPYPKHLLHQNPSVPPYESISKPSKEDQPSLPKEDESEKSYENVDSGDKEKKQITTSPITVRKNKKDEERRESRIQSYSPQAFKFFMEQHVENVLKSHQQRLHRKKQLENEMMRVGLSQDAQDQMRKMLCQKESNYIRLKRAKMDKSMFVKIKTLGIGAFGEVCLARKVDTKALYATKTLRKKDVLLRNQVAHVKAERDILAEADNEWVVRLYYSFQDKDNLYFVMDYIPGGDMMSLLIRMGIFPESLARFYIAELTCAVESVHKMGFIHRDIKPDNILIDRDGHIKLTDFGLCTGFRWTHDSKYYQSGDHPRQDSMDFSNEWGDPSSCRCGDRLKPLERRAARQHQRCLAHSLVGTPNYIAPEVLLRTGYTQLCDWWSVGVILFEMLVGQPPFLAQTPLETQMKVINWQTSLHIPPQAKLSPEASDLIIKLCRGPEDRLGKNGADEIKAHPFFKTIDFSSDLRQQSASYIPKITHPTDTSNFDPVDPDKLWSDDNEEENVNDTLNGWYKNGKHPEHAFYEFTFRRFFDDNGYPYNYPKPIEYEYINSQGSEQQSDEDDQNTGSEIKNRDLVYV

Sequence of Cyclin-dependent kinase 14 (Homo sapiens) (O94921 whole entry): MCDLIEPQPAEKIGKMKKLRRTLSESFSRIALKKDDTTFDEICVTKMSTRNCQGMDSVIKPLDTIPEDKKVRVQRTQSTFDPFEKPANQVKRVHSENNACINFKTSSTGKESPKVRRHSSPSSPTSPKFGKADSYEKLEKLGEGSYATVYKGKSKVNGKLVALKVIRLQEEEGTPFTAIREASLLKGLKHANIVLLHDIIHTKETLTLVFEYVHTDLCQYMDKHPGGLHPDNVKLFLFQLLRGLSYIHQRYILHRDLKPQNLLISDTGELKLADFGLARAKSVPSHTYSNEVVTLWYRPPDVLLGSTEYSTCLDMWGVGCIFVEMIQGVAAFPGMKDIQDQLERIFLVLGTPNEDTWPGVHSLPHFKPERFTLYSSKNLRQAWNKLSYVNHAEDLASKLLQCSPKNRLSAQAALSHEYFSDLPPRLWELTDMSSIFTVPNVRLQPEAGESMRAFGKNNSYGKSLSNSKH

CS(=O)(=O)N1CCCC(NC(=O)[C@H](CCC2CCCCC2)NC(=O)c2ccc(CNc3ncnc4c3nnn4-c3ccccc3)cc2)C1 (stereo not given in full) [SR-301]
residual activity [1]: 86% | residual activity [2]: 100% | residual activity [3]: 95% | residual activity [4]: 100% | residual activity [5]: 85% | residual activity [6]: 91% | residual activity [7]: 68% | residual activity [8]: 96% | residual activity [9]: 100% | residual activity [10]: 76% | residual activity [11]: 65% | residual activity [12]: 88% | residual activity [13]: 79% | residual activity [14]: 95% | residual activity [15]: 100% | residual activity [16]: 100% | residual activity [17]: 87% | residual activity [18]: 94% | residual activity [19]: 100% | residual activity [20]: 91% | residual activity [21]: 84% | residual activity [22]: 100% | residual activity [23]: 100% | residual activity [24]: 97% | residual activity [25]: 100% | residual activity [26]: 100% | residual activity [27]: 100% | residual activity [28]: 100% | residual activity [29]: 80% | residual activity [30]: 99% | residual activity [31]: 96% | residual activity [32]: 100% | residual activity [33]: 100% | residual activity [34]: 88% | residual activity [35]: 85% | residual activity [36]: 100% | residual activity [37]: 75% | residual activity [38]: 75% | residual activity [39]: 80% | residual activity [40]: 100% | residual activity [41]: 98% | residual activity [42]: 100% | residual activity [43]: 81% | residual activity [44]: 99% | residual activity [45]: 100%

CS(=O)(=O)N1CCCC(NC(=O)[C@H](CCC2CCCCC2)NC(=O)c2ccc(CNC(=O)c3cnc4ccccn34)cc2)C1 (stereo not given in full) [SR-302]
residual activity [1]: 97% | residual activity [2]: 100% | residual activity [3]: 100% | residual activity [4]: 100% | residual activity [5]: 85% | residual activity [6]: 70% | residual activity [7]: 62% | residual activity [8]: 84% | residual activity [9]: 83% | residual activity [10]: 98% | residual activity [11]: 93% | residual activity [12]: 97% | residual activity [13]: 100% | residual activity [14]: 93% | residual activity [15]: 100% | residual activity [16]: 100% | residual activity [17]: 86% | residual activity [18]: 100% | residual activity [19]: 83% | residual activity [20]: 67% | residual activity [21]: 100% | residual activity [22]: 100% | residual activity [23]: 100% | residual activity [24]: 100% | residual activity [25]: 74% | residual activity [26]: 65% | residual activity [27]: 0% | residual activity [28]: 100% | residual activity [29]: 100% | residual activity [30]: 35% | residual activity [31]: 100% | residual activity [32]: 100% | residual activity [33]: 100% | residual activity [34]: 90% | residual activity [35]: 100% | residual activity [36]: 100% | residual activity [37]: 97% | residual activity [38]: 91% | residual activity [39]: 100% | residual activity [40]: 100% | residual activity [41]: 72% | residual activity [42]: 93% | residual activity [43]: 91% | residual activity [44]: 100% | residual activity [45]: 98%
